Reference: US20260347409A1, “CHEMICALLY MODIFIED POLYPEPTIDE” (SUZHOU GLENKOL PHARMA TECHNOLOGY CO., LTD., priority 2023, published 2026)
pEC50: −log10 of the molar value. Where a SMILES comes first, the peptide text is derived from it. Where no end group is shown, it is not given here. [ ]: non-standard residue; d: D form. NMeY = CN[C@@H](Cc1ccc(O)cc1)C(=O)O

Experiments:
PC-12 cells = experiment: Cell viability of PC-12 neural cells under glutamate stimulation (excitotoxic cell death model, propidium iodide/Hoechst staining); format: cell-based, rat; conditions: for Normalized cell viability (%): 10 nM compound, 30 min pretreatment, then glutamate stimulation 24 h, normalized to positive control MK-801; for pEC50: dose-response relationship in promoting the viability of PC-12 neurons, glutamate stimulation
Method: 1.1. Culture of PC-12 Cell Line and Establishment of Excitotoxic Cell Death Model
PC-12 cells (a […] cell line derived from rat adrenal medulla) were cultured in DMEM/F12 complete medium until eaching 80-90% confluence. The cells were then digested, collected, resuspended, and seeded at density of 5×10^4 cells per well in a 24-well plate precoated with coverslips. Following 26 hours of cell culture, excitotoxic cell death was induced by glutamate stimulation. For model establishment: an appropriate amount of glutamate was weighed and dissolved in DMEM/F12 medium to prepare a stock solution. After filtration, the stock solution was diluted with culture medium and administered to the cells via medium replacement. The cells were further incubated for 24 hours after administration.
1.2 Administration of Small Molecules
Prior to glutamate modeling, cells incubated as described in the previous step were pretreated with 10 nM of the polypeptide compound according to the present application for 30 minutes, followed by glutamate stimulation.
1.3. Propidium Iodide Staining
Cells treated with the polypeptide compound according to the present application were stained with propidium iodide to assess cell death. After discarding the culture medium, the cells were washed with PBS, and propidium iodide/Hoechst was added. After incubating for 30 minutes, the cells were removed and the staining solution was discarded. After washing with PBS, the cells were fixed and mounted, and subjected to image acquisition under a fluorescence microscope. The number of propidium iodide-positive cells and Hoechst-positive cells in the acquired images was counted to calculate the cell viability. MK-801 was used as the positive control compound. The normalized cell viability was calculated using the following formula: (cell viability of the compound group −cell viability of the glutamate group)/(cell viability of the positive control group −cell viability of the glutamate group)×100%.
Based on the above dose-response studies of the compound, the inhibitory effects of different small-molecule compounds at the same dose (10 nM) against excitotoxic death in PC-12 neurons cells were further compared.
Based on this, the dose-response relationship of the neuroprotective effect of the polypeptide compounds according to the present application on PC-12 neural cells was analyzed.

[1] = Pharmacokinetic characteristics in rats after intravenous administration (plasma, LC-MS/MS); format: in vivo; conditions: SD rats, intravenous (tail vein), 10 mg/kg; for MRT inf: rat
Method: Experimental Example 2: Pharmacokinetic Characteristics of Various Compounds in Rats
Intravenous administration: Three SD rats per group were administered the compounds of Example 1, Example 2, Example 3, Example 6, Example 7, Example 17, and Example 19 via the tail vein, respectively, at a dose of 10 mg/kg. all SD rats were allowed free access to food and water after administration. Plasma was collected 3 min, 10 min, 30 min, 1 h, 2 h, 6 h, 10 h, and 24 h after administration, with 3 rats per time point.
Sample processing: Whole blood was anticoagulated with EDTA-K2. Within 30 minutes of collection, the blood was centrifuged at 3000 g for 10 minutes at 2-8 °C. After centrifugation, the separated plasma was transferred to new 1.5 mL centrifuge tubes and stored at −80 °C.
Analytical method: The concentrations of each compounds in rat plasma were determined by LC-MS/MS using Shimadzu LC30AD and AB Sciex QTRAP 6500+instruments. The relevant pharmacokinetic parameters after administration were calculated.

Compound | Normalized cell viability (%) (PC-12 cells) | T1/2 [1] [h] | Vss [1] [L/kg] | MRT inf [1] [h] | pEC50 (PC-12 cells)
CN[C@@H](Cc1ccc(O)cc1)C(=O)NCC(=O)N[C@@H](CCCNC(=N)N)C(=O)N[C@@H](CCCCN)C(=O)N[C@@H](CCCCN)C(=O)N[C@@H](CCCNC(=N)N)C(=O)N[C@@H](CCCNC(=N)N)C(=O)N[C@@H](CCC(=O)O)C(=O)N[C@@H](CCCNC(=N)N)C(=O)N[C@@H](CCCNC(=N)N)C(=O)N[C@@H](CCCNC(=N)N)C(=O)N[C@@H](CCCCN)C(=O)N[C@@H](CCCCN)C(=O)N[C@@H](CC(=O)O)C(=O)N[C@@H](CCCNC(=N)N)C(=O)N[C@@H](CC(=O)O)C(=O)N[C@@H](CCCCN)C(=O)N[C@@H](CC(C)C)C(=O)N[C@@H](CCCNC(=N)N)C(=O)N[C@@H](CCCNC(=N)N)C(=O)N[C@@H](CCC(=O)O)C(=O)N[C@@H](Cc1c[nH]cn1)C(=O)N[C@@H](CO)C(=O)N[C@@H](Cc1ccc(O)cc1)C(N)=O [Example 19] (H-[NMeY]GRKKRRERRRKKDRDKLRREHSY-NH2) | 87.71 | 1.16 | 9.11 | 1.73 | 
YGRKKRRQRRRKKNRNKLRRQHSY-NH2 [Example 6] |  | 1.23 | 2.53 | 1.65 | 7.87
YGRKKRRQRRRKKNRNKLRRQHSY [Example 1, reference compound] | 41.00 | 0.76 | 1.29 | 0.87 | 7.63
CN[C@@H](Cc1ccc(O)cc1)C(=O)NCC(=O)N[C@@H](CCCNC(=N)N)C(=O)N[C@@H](CCCCN)C(=O)N[C@@H](CCCCN)C(=O)N[C@@H](CCCNC(=N)N)C(=O)N[C@@H](CCCNC(=N)N)C(=O)N[C@@H](CCC(N)=O)C(=O)N[C@@H](CCCNC(=N)N)C(=O)N[C@@H](CCCNC(=N)N)C(=O)N[C@@H](CCCNC(=N)N)C(=O)N[C@@H](CCCCN)C(=O)N[C@@H](CCCCN)C(=O)N[C@@H](CC(N)=O)C(=O)N[C@@H](CCCNC(=N)N)C(=O)N[C@@H](CC(N)=O)C(=O)N[C@@H](CCCCN)C(=O)N[C@@H](CC(C)C)C(=O)N[C@@H](CCCNC(=N)N)C(=O)N[C@@H](CCCNC(=N)N)C(=O)N[C@@H](CCC(N)=O)C(=O)N[C@@H](Cc1c[nH]cn1)C(=O)N[C@@H](CO)C(=O)N[C@@H](Cc1ccc(O)cc1)C(=O)O [Example 2] (H-[NMeY]GRKKRRQRRRKKNRNKLRRQHSY-OH) | 65.56 | 1.73 | 3.94 | 1.84 | 7.90
Ac-YGRKKRRQRRRKKNRNKLRRQHSY-NH2 [Example 7] |  | 1.51 | 3.58 | 1.93 | 8.06
